From patent US9738634B2, “Heterocyclic amide compound and herbicide” (SYNGENTA PARTICIPATIONS AG, priority 2013, dated 2017)

Tests used:
Assay type in all cases: in vivo
[1] = system: oval-leafed pondweed; assay: Test Example 1: weedkilling efficacy, preemergent weed treatment in the submerged state; C: oval-leafed pondweed; details: treatment dosage 320 g/ha
In short: (§1)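 Submerged pre-emergence treatment, water-surface application of compound emulsion at g/ha dosages; 4 cm flooded alluvial soil, weeds sown and 2.5-leaf rice transplanted same day. Rated after 3 weeks, greenhouse.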

[2] = system: barnyard grass; assay: Test Example 2: weedkilling efficacy, growth period weed treatment in the submerged state; A: barnyard grass; details: treatment dosage 320 g/ha
In short: (§2)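 Seedlings at 1-2 leaves in 4 cm-deep submerged alluvial soil received emulsion formulations on the water surface, dosed per hectare; effects were judged 3 weeks on.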

[3] = system: crabgrass; assay: Test Example 3: weedkilling efficacy through soil treatment; D: crabgrass; details: soil treatment, treatment dosage 320 g/ha
In short: (§3)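 Crop and weed responses were judged three weeks after a uniform surface spray of the water-diluted emulsion at the given g/ha rate. Seeds sat beneath about 1.5 cm of sterilized diluvial soil, and boxes stood in a greenhouse at 25 to 30° C.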

[4] = system: wheat; assay: Test Example 3: soil treatment, effect on crop; e: wheat; details: soil treatment, treatment dosage 320 g/ha
In short: as §3

[5] = system: corn; assay: Test Example 3: soil treatment, effect on crop; c: corn; details: soil treatment, treatment dosage 320 g/ha
In short: as §3

[6] = system: birds-eye speedwell; assay: Test Example 3: weedkilling efficacy through soil treatment; p: birds-eye speedwell; details: soil treatment, treatment dosage 320 g/ha
In short: as §3

[7] = system: redroot pigweed; assay: Test Example 3: weedkilling efficacy through soil treatment; L: redroot pigweed; details: soil treatment, treatment dosage 320 g/ha
In short: as §3

[8] = system: wild oat; assay: Test Example 3: weedkilling efficacy through soil treatment; G: wild oat; details: soil treatment, treatment dosage 320 g/ha
In short: as §3

[9] = system: chickweed; assay: Test Example 3: weedkilling efficacy through soil treatment; N: chickweed; details: soil treatment, treatment dosage 320 g/ha
In short: as §3

[10] = system: rapeseed; assay: Test Example 3: soil treatment, effect on crop; g: rapeseed; details: soil treatment, treatment dosage 320 g/ha
In short: as §3

[11] = system: fig-leafed goosefoot; assay: Test Example 3: weedkilling efficacy through soil treatment; M: fig-leafed goosefoot; details: soil treatment, treatment dosage 320 g/ha
In short: as §3

[12] = system: directly sown rice; assay: Test Example 3: soil treatment, effect on crop; b: directly sown rice; details: soil treatment, treatment dosage 320 g/ha
In short: as §3

[13] = system: bulrush; assay: Test Example 1: weedkilling efficacy, preemergent weed treatment in the submerged state; B: bulrush; details: treatment dosage 320 g/ha
In short: as §1

[14] = system: barnyard grass; assay: Test Example 3: weedkilling efficacy through soil treatment; F: barnyard grass; details: soil treatment, treatment dosage 320 g/ha
In short: as §3

[15] = system: soybean; assay: Test Example 3: soil treatment, effect on crop; d: soybean; details: soil treatment, treatment dosage 320 g/ha
In short: as §3

[16] = system: oval-leafed pondweed; assay: Test Example 2: weedkilling efficacy, growth period weed treatment in the submerged state; C: oval-leafed pondweed; details: treatment dosage 320 g/ha
In short: as §2

[17] = system: common wind-grass; assay: Test Example 3: weedkilling efficacy through soil treatment; J: common wind-grass; details: soil treatment, treatment dosage 320 g/ha
In short: as §3

[18] = system: transplanted rice; assay: Test Example 1: preemergent weed treatment in the submerged state, effect on crop; a: transplanted rice; details: treatment dosage 320 g/ha
In short: as §1

[19] = system: barnyard grass; assay: Test Example 1: weedkilling efficacy, preemergent weed treatment in the submerged state; A: barnyard grass; details: treatment dosage 320 g/ha
In short: as §1

[20] = system: green foxtail; assay: Test Example 3: weedkilling efficacy through soil treatment; E: green foxtail; details: soil treatment, treatment dosage 320 g/ha
In short: as §3

[21] = system: beet; assay: Test Example 3: soil treatment, effect on crop; f: beet; details: soil treatment, treatment dosage 320 g/ha
In short: as §3

[22] = system: black-grass; assay: Test Example 3: weedkilling efficacy through soil treatment; H: black-grass; details: soil treatment, treatment dosage 320 g/ha
In short: as §3

[23] = system: bulrush; assay: Test Example 2: weedkilling efficacy, growth period weed treatment in the submerged state; B: bulrush; details: treatment dosage 320 g/ha
In short: as §2

[24] = system: Indian mallow; assay: Test Example 3: weedkilling efficacy through soil treatment; K: Indian mallow; details: soil treatment, treatment dosage 320 g/ha
In short: as §3

[25] = system: Italian ryegrass; assay: Test Example 3: weedkilling efficacy through soil treatment; I: Italian ryegrass; details: soil treatment, treatment dosage 320 g/ha
In short: as §3

[26] = system: catchweed; assay: Test Example 3: weedkilling efficacy through soil treatment; O: catchweed; details: soil treatment, treatment dosage 320 g/ha
In short: as §3

| SMILES | C: oval-leafed pondweed, weed kill grade [1] | A (barnyard grass) weedkilling efficacy grade [2] | D: crabgrass, weedkilling efficacy grade [3] | e: wheat, effect on crop grade [4] | c: corn, effect on crop grade [5] | P: birds-eye speedwell, weedkilling efficacy grade [6] | L: redroot pigweed, weedkilling efficacy grade [7] | G: wild oat, weedkilling efficacy grade [8] | N: chickweed, weedkilling efficacy grade [9] | g: rapeseed, effect on crop grade [10] | M: fig-leafed goosefoot, weedkilling efficacy grade [11] | b: directly sown rice, effect on crop grade [12] | B: bulrush, weed kill grade [13] | F: barnyard grass, weedkilling efficacy grade [14] | d: soybean, effect on crop grade [15] | C (oval-leafed pondweed) weedkilling efficacy grade [16] | J: common wind-grass, weedkilling efficacy grade [17] | a: transplanted rice, effect on crop grade [18] | A: barnyard grass, weed kill grade [19] | E: green foxtail, weedkilling efficacy grade [20] | other results |
| --- | --- | --- | --- | --- | --- | --- | --- | --- | --- | --- | --- | --- | --- | --- | --- | --- | --- | --- | --- | --- | --- |
| Cc1nsc(NC(=O)C(C)(C)N2COCN(c3ccccc3)C2=O)n1 [A-1-18] | 5 (weed kill ratio 90% or more, (practically complete withering)) | 3 (weed kill ratio 40% or more, less than 70%) | 5 (weed kill ratio 90% or more, (practically complete withering)) | 0 (weed kill ratio 5% or less (practically no effect)) | 0 (weed kill ratio 5% or less (practically no effect)) | 4 (weed kill ratio 70% or more, less than 90%) | 4 (weed kill ratio 70% or more, less than 90%) | 4 (weed kill ratio 70% or more, less than 90%) | 2 (weed kill ratio 20% or more, less than 40%) | 4 (weed kill ratio 70% or more, less than 90%) | 4 (weed kill ratio 70% or more, less than 90%) | 5 (weed kill ratio 90% or more, (practically complete withering)) | 5 (weed kill ratio 90% or more, (practically complete withering)) | 4 (weed kill ratio 70% or more, less than 90%) | 4 (weed kill ratio 70% or more, less than 90%) | 5 (weed kill ratio 90% or more, (practically complete withering)) | 5 (weed kill ratio 90% or more, (practically complete withering)) | 2 (weed kill ratio 20% or more, less than 40%) | 5 (weed kill ratio 90% or more, (practically complete withering)) | 5 (weed kill ratio 90% or more, (practically complete withering)) | f: beet, effect on crop grade [21]: 1 (weed kill ratio 5% or more, less than 20%); H: black-grass, weedkilling efficacy grade [22]: 5 (weed kill ratio 90% or more, (practically complete withering)); B (bulrush) weedkilling efficacy grade [23]: 5 (weed kill ratio 90% or more, (practically complete withering)); K: Indian mallow, weedkilling efficacy grade [24]: 0 (weed kill ratio 5% or less (practically no effect)); I: Italian ryegrass, weedkilling efficacy grade [25]: 5 (weed kill ratio 90% or more, (practically complete withering)); O: catchweed, weedkilling efficacy grade [26]: 0 (weed kill ratio 5% or less (practically no effect)) |
| CC(C)(C(=O)Nc1cc(F)cc(Cl)n1)N1COCN(c2ccccc2)C1=O [A-2-14] | 5 (weed kill ratio 90% or more, (practically complete withering)) | 5 (weed kill ratio 90% or more, (practically complete withering)) | 5 (weed kill ratio 90% or more, (practically complete withering)) | 4 (weed kill ratio 70% or more, less than 90%) | 4 (weed kill ratio 70% or more, less than 90%) | 5 (weed kill ratio 90% or more, (practically complete withering)) | 5 (weed kill ratio 90% or more, (practically complete withering)) | 5 (weed kill ratio 90% or more, (practically complete withering)) | 5 (weed kill ratio 90% or more, (practically complete withering)) | 4 (weed kill ratio 70% or more, less than 90%) | 5 (weed kill ratio 90% or more, (practically complete withering)) | 5 (weed kill ratio 90% or more, (practically complete withering)) | 5 (weed kill ratio 90% or more, (practically complete withering)) | 5 (weed kill ratio 90% or more, (practically complete withering)) | 4 (weed kill ratio 70% or more, less than 90%) | 5 (weed kill ratio 90% or more, (practically complete withering)) | 5 (weed kill ratio 90% or more, (practically complete withering)) | 3 (weed kill ratio 40% or more, less than 70%) | 5 (weed kill ratio 90% or more, (practically complete withering)) | 5 (weed kill ratio 90% or more, (practically complete withering)) | f: beet, effect on crop grade [21]: 4 (weed kill ratio 70% or more, less than 90%); H: black-grass, weedkilling efficacy grade [22]: 5 (weed kill ratio 90% or more, (practically complete withering)); B (bulrush) weedkilling efficacy grade [23]: 5 (weed kill ratio 90% or more, (practically complete withering)); K: Indian mallow, weedkilling efficacy grade [24]: 5 (weed kill ratio 90% or more, (practically complete withering)); I: Italian ryegrass, weedkilling efficacy grade [25]: 5 (weed kill ratio 90% or more, (practically complete withering)); O: catchweed, weedkilling efficacy grade [26]: 5 (weed kill ratio 90% or more, (practically complete withering)) |
| Cc1nnc(NC(=O)C(C)(C)N2COCN(c3ccccc3)C2=O)s1 [A-1-13] | 5 (weed kill ratio 90% or more, (practically complete withering)) | 3 (weed kill ratio 40% or more, less than 70%) | 3 (weed kill ratio 40% or more, less than 70%) | 1 (weed kill ratio 5% or more, less than 20%) | 0 (weed kill ratio 5% or less (practically no effect)) | 4 (weed kill ratio 70% or more, less than 90%) | 0 (weed kill ratio 5% or less (practically no effect)) | 3 (weed kill ratio 40% or more, less than 70%) | 3 (weed kill ratio 40% or more, less than 70%) | 4 (weed kill ratio 70% or more, less than 90%) | 3 (weed kill ratio 40% or more, less than 70%) | 3 (weed kill ratio 40% or more, less than 70%) | 5 (weed kill ratio 90% or more, (practically complete withering)) | 3 (weed kill ratio 40% or more, less than 70%) | 0 (weed kill ratio 5% or less (practically no effect)) | 3 (weed kill ratio 40% or more, less than 70%) | 5 (weed kill ratio 90% or more, (practically complete withering)) | 3 (weed kill ratio 40% or more, less than 70%) | 5 (weed kill ratio 90% or more, (practically complete withering)) | 3 (weed kill ratio 40% or more, less than 70%) | f: beet, effect on crop grade [21]: 1 (weed kill ratio 5% or more, less than 20%); H: black-grass, weedkilling efficacy grade [22]: 5 (weed kill ratio 90% or more, (practically complete withering)); B (bulrush) weedkilling efficacy grade [23]: 5 (weed kill ratio 90% or more, (practically complete withering)); K: Indian mallow, weedkilling efficacy grade [24]: 0 (weed kill ratio 5% or less (practically no effect)); I: Italian ryegrass, weedkilling efficacy grade [25]: 5 (weed kill ratio 90% or more, (practically complete withering)); O: catchweed, weedkilling efficacy grade [26]: 0 (weed kill ratio 5% or less (practically no effect)) |
